Assay results: PubChem BioAssay (NCI)
Where “and” joins values, the source holds several entries; their conditions need not be identical. Equal entries are not always repeated.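 Assay format: 96-well plates, 48-hour exposure. At the GI50, growth is halved. TGI: concentration producing complete growth inhibition.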 Where a SMILES comes first, the peptide text is derived from it. [ ]: non-standard residue; d: D form. The star is where a group is joined. ξ: configuration not given here. NMeY = CN[C@@H](Cc1ccc(O)cc1)C(=O)O; Cbz = O=C(OCc1ccccc1)*; ξA = CC(N)C(=O)O

How the values were obtained:
Assay in all cases: growth of human tumour cells (NCI), 48 h
SF-295 CNS = tested on: SF-295 CNS
U251 CNS = tested on: U251 CNS
MDA-N = tested on: MDA-N
EKVX NSCLC = tested on: EKVX NSCLC
UO-31 renal = tested on: UO-31 renal
OVCAR-4 ovarian = tested on: OVCAR-4 ovarian
SF-539 CNS = tested on: SF-539 CNS
HCT-116 colon = tested on: HCT-116 colon
NCI-H226 lung = tested on: NCI-H226 lung
SK-MEL-5 melanoma = tested on: SK-MEL-5 melanoma

| SMILES | TGI (SF-295 CNS) | TGI (U251 CNS) | TGI (MDA-N) [µM] | TGI (EKVX NSCLC) | TGI (UO-31 renal) | TGI (OVCAR-4 ovarian) | TGI (SF-539 CNS) | TGI (HCT-116 colon) | TGI (NCI-H226 lung) | TGI (SK-MEL-5 melanoma) | GI50 (SF-295 CNS) [µM] | GI50 (U251 CNS) [µM] | GI50 (MDA-N) [µM] | GI50 (EKVX NSCLC) [µM] | GI50 (UO-31 renal) [µM] | GI50 (OVCAR-4 ovarian) [µM] | GI50 (SF-539 CNS) [µM] | GI50 (HCT-116 colon) [µM] | GI50 (NCI-H226 lung) [µM] | GI50 (SK-MEL-5 melanoma) [µM] |
| --- | --- | --- | --- | --- | --- | --- | --- | --- | --- | --- | --- | --- | --- | --- | --- | --- | --- | --- | --- | --- |
| COc1ccc(C[C@H]2COC(=O)[C@@H]2Cc2ccc(Br)cc2)cc1OC | > 74.3 µM | > 100 µM | > 100 | 56.5 µM | 24.2 µM | > 100 µM | > 100 µM | > 89.7 µM | > 85.4 µM | 17.2 µM |  |  |  |  |  |  |  |  |  |  |
| C=CC(C)(C)NC(C(=O)N1CCC[C@H]1c1nc(-c2nc(C(=O)OCC=C(C)C)c(C)o2)c(C)o1)C(C)C (stereo not given in full) | > 74.8 µM | > 78.1 µM | 56.2 | > 90.1 µM | > 65.1 µM | > 100 µM | > 68.7 µM | > 100 µM | > 87.7 µM | > 72.7 µM |  |  |  |  |  |  |  |  |  |  |
| CC(=Nc1ccc(Cl)cc1)c1ccncc1 | > 100 µM | > 100 µM | > 100 | > 100 µM | > 100 µM | > 100 µM | 77.9 µM | > 100 µM | > 100 µM | > 100 µM |  |  |  |  |  |  |  |  |  |  |
| CO[P@@]1(=O)O[C@@H](c2ccccc2)[C@H](O)[C@@]1(O)c1ccccc1 | > 100 µM | > 100 µM | > 100 | > 100 µM | > 100 µM | > 100 µM | > 100 µM | > 100 µM | > 100 µM | > 100 µM |  |  |  |  |  |  |  |  |  |  |
| COc1ccc2nc3c4c(nccc4c2c1)-c1ncccc1C3=O | 0.278 µM | 1.75 µM | 0.128 | 0.903 µM | 0.706 µM | 2.01 µM | 0.56 µM | 0.467 µM | 0.445 µM | 0.111 µM |  |  |  |  |  |  |  |  |  |  |
| COc1cccc(CCn2c(N)c(-c3cc(Cl)cc(Cl)c3)c3ccc([N+](=O)[O-])cc3c2=O)c1 | > 100 µM | > 49.3 µM | > 100 | > 100 µM | 25.5 µM | > 100 µM | > 100 µM | 12.7 µM | > 53.5 µM | 9.07 µM |  |  |  |  |  |  |  |  |  |  |
| C=C1N(C)c2ccc(S(=O)(=O)c3ccc4c(c3)C(C)(C)C(=C)N4C)cc2C1(C)C | > 100 µM | > 100 µM | > 100 | > 100 µM | > 100 µM | > 100 µM | > 100 µM | > 100 µM | > 100 µM | 43.6 µM |  |  |  |  |  |  |  |  |  |  |
| c1ccc2c(c1)CCN1CCc3ccccc3C1C2 (stereo not given) | > 100 µM | > 100 µM | > 100 | > 100 µM | 68.9 µM | > 100 µM | 61.5 µM | > 100 µM | 93.1 µM | 37 µM |  |  |  |  |  |  |  |  |  |  |
| O=S(=O)(O)c1c(Cl)c(Cl)c(O)c2ncccc12 | 33.2 µM | 47.2 µM | 43.6 | 41.6 µM | 22.7 µM | 47.1 µM | > 56.7 µM | 16.6 µM | 64.3 µM | 28.6 µM |  |  |  |  |  |  |  |  |  |  |
| C1CSCCSCCSCCSCCS1 | > 100 µM | > 100 µM | > 100 | > 100 µM | > 100 µM | > 100 µM | > 100 µM | > 100 µM | > 100 µM | > 100 µM |  |  |  |  |  |  |  |  |  |  |
| CN1N=C(c2ccncc2)OC1c1cccc(F)c1 (stereo not given) | > 100 µM | > 100 µM | > 100 | > 100 µM | > 100 µM | > 100 µM | > 100 µM | > 100 µM | > 100 µM | > 100 µM |  |  |  |  |  |  |  |  |  |  |
| COc1ccc(C[C@@H](C(=O)N[C@@H](C)C(N)=O)N(C)C(=O)[C@@H]2CCCN2C(=O)[C@H](CC(C)C)NC(=O)C(C)NC(=O)OCc2ccccc2)cc1 (stereo not given in full) (Cbz-[ξA]LP[NMeY](Me)A-NH2) | > 100 µM | > 100 µM | > 100 | > 100 µM | > 100 µM | > 100 µM | > 100 µM | > 100 µM | > 100 µM | > 100 µM |  |  |  |  |  |  |  |  |  |  |
| COC(=O)CN1Cc2cc(C)cc(c2O)CN(CC(=O)OC)Cc2cc(C)cc(c2O)CN(CC(=O)OC)Cc2cc(C)cc(c2O)CN(CC(=O)OC)Cc2cc(C)cc(c2O)C1 | 50 µM and > 100 µM | 50 µM and > 100 µM | > 100 | 50 µM and > 100 µM | 50 µM and > 100 µM | 50 µM and > 100 µM | 50 µM and > 100 µM | 50 µM and > 100 µM | 47.2 µM and > 100 µM | 50 µM and > 100 µM | 34.1 | 30.9 | 84.1 | 35.3 | 33.8 | 33.1 | 37.3 | 27.7 | 11.1 | 37.7 |
| CC(C)N(C(C)C)S(=O)(=O)CC12CCC(C/C1=N\O)C2 (stereo not given) | > 100 µM | > 100 µM | > 100 | > 100 µM | > 100 µM | > 100 µM | > 100 µM | > 100 µM | > 100 µM | > 100 µM |  |  |  |  |  |  |  |  |  |  |
| CC(=O)Oc1ccc2c(c1)[nH]c1c3ccc(OC(C)=O)cc3oc(=O)c21 | > 100 µM | > 100 µM | > 100 | 86.1 µM | > 100 µM | > 100 µM | > 100 µM | 78.1 µM | 76.5 µM | 68.9 µM |  |  |  |  |  |  |  |  |  |  |
| OC1C2CCCCN2C[C@@H](O)[C@H]1O (stereo not given in full) | > 100 µM | > 100 µM | > 100 | > 100 µM | > 100 µM | > 100 µM | > 100 µM | > 100 µM | > 100 µM | > 100 µM |  |  |  |  |  |  |  |  |  |  |
